# According to patent US20170313755A1 (priority 2016, published 2017):
# Entries after “also recorded” stand apart in the source; their conditions may differ. Like-named read-outs stand apart in the source and are kept apart here.
# How the values were obtained:
# [1] = system: insulin receptor A (IRA) and insulin receptor B (IRB) isoforms; experiment: Insulin receptor phosphorylation assay in receptor transfected HEK293 cells; format: cell-based, human; conditions: for agonist (maximal) activity at the insulin receptor isoforms / potency at the insulin receptor isoforms / maximal activity relative to native insulin: agonism; for maximal activity relative to native insulin: both receptor isoforms
# Method: Color development was stopped 5 min later by adding 0.05 ml 1 N HCl. Absorbance at 450 nm was measured on Titertek Multiscan MCC340 (ThermoFisher, Pittsburgh, Pa.). Absorbance vs. peptide concentration dose response curves were plotted and EC50 values were determined by using Origin software (OriginLab, Northampton, Mass.).
# Optical density at 450 nm was graphed as a function of peptide concentration using Origin Pro 9.0 graphing software.
# mice = experiment: Comparative insulin tolerance tests on mice (acylated insulin analogs); format: in vivo; conditions: 27 nmol/kg and 90 nmol/kg; even after 8 hours
# Method: The polypeptides were tested at two different concentrations (27 nmol/kg and 90 nmol/kg). The acylated insulins included MIU-41, MIU-36 and MIU-37.
# The compounds were tested at two different concentrations (27 nmol/kg and 90 nmol/kg).
# [2] = system: insulin receptor A (IRA) and insulin receptor B (IRB) isoforms; conditions: non-covalent addition (in trans), previous work, cited from earlier work
# STZ-mice = experiment: Blood glucose in STZ diabetic mice after insulin/antagonist peptide conjugates; format: in vivo; conditions: 10 nmol/kg, mice fasted 2 hours
# Method: The peptides were tested in STZ-mice, due to their high fasting blood glucose levels.
# human insulin receptor = target: T1, human insulin receptor (human, UniProt P06213 28-1382); experiment: scintillation proximity competition binding against 125I-insulin, membranes with human insulin receptor
# T1 construct: whole, on cells; Stood in the assay as plasma membrane fragments on wheat germ agglutinin SPA beads, not as whole cells
# Method: The affinity of each peptide for the insulin or IGF-1 receptor was measured in a competition binding assay utilizing scintillation proximity technology. […] Non-specifically bound (NSB) radioactivity was measured in the wells with a four-fold concentration excess of “cold” native ligand than the highest concentration in test samples. Total bound radioactivity was detected in the wells with no competitor. Percent specific binding was calculated as following: % Specific Binding=(Bound-NSB/Total bound-NSB)×100. IC50 values were determined by using Origin software (OriginLab, Northampton, Mass.).
Molecule,agonist (maximal) activity at the insulin receptor isoforms [1],potency at the insulin receptor isoforms [1],other results
#6(A3)-Cys-Insulin: B29 modified insulin disulfide-conjugated to 6(A3)Cys SLAEEWAQIQSEVWGRGSPSYC (SEQ ID NO: 173),little effect on maximal activity,shift the potency,
"[B^1(H5,H10,Y16,L17,C16rE-K22)26A: A^1(N18,N21)] [MIU-37]",,,blood glucose lowering relative to native insulin (mice): more basal and sustained lowered glucose levels
"[B^1(C16-K0,H5,H10,Y16,L17)26A: A1(N18,N21)] [MIU-36]",,,blood glucose lowering relative to native insulin (mice): more basal and sustained lowered glucose levels
modified insulin: native insulin modified with an NHS ester to carry one additional thiol functional group at the B29 lysine,fully activating the insulin receptor isoforms,slightly reduced potency,
#Insulin-Cys-4: B29 modified insulin disulfide-conjugated to Cys4 CGSLDESFYDWFERQLG (SEQ ID NO: 166),only a small change in maximal activity,a small decrease in potency,
#6(Y2)-Cys-Insulin: B29 modified insulin disulfide-conjugated to 6(Y2)Cys SYEEEWAQIQSEVWGRGSPSYC (SEQ ID NO: 179),,,maximal activity relative to native insulin [1]: approximately 70%
#6(A1)-Cys-Insulin: B29 modified insulin disulfide-conjugated to 6(A1)Cys ALEEEWAQIQSEVWGRGPSYC (SEQ ID NO: 171),almost no effect upon bioactivity,,
SLEEEWAQIQSEVWGRGSPSYC (synthetic insulin receptor antagonist peptide) [#6Cys],,,antagonism of native insulin by unconjugated peptide (words) [2]: incapable of antagonizing native insulin; antagonism of native insulin by unconjugated peptide (words) ([2]; listed as #6-Cys): incapable of antagonism in vitro
#6(W2)-Cys-Insulin: B29 modified insulin disulfide-conjugated to 6(W2)Cys SWEEEWAQIQSEVWGRGSPSYC (SEQ ID NO: 178),,,maximal activity relative to native insulin [1]: approximately 60%
#6(des1-5)-Cys-Insulin: B29 modified insulin disulfide-conjugated to 6(des1-5)Cys WAQIQSEVWGRGSPSYC (SEQ ID NO: 170),full activity,full potency,
#4-Cys-Insulin: B29 modified insulin disulfide-conjugated to 4Cys GSLDESFYDWFERQLGC (SEQ ID NO: 167),,,antagonism at the insulin receptor isoforms ([1]; conjugate against native insulin): some degree of antagonism
#6(Q2)-Cys-Insulin: B29 modified insulin disulfide-conjugated to 6(Q2)Cys SQEEEWAQIQSEVWGRGSPSYC (SEQ ID NO: 180),without a significant decrease in maximal activity; also recorded: high of maximal activity,shift in potency; also recorded: decrease in potency,
#6(V2)-Cys-Insulin: B29 modified insulin disulfide-conjugated to 6(V2)Cys SVEEEWAQIQSEVWGRGSPSYC (SEQ ID NO: 176),slight increase in maximal activity,,
"[B^1(H5,H10,Y16,L17)26A: A^1(H8,rEC16-K14,N18,N21)] [MIU-41]",,,blood glucose lowering relative to native insulin (mice): more basal and sustained lowered glucose levels
#6(A2)-Cys-Insulin: B29 modified insulin disulfide-conjugated to 6(A2)Cys SAEEEWAQIQSEVWGRGSPSYC (SEQ ID NO: 172),restored almost all of the potency and activity,restored almost all of the potency and activity,blood glucose response versus equivalent dose of native insulin (STZ-mice): behaved identically to an equivalent dose of native insulin
#6(dL2)-Cys-Insulin: B29 modified insulin disulfide-conjugated to 6(dL2)Cys SdLEEEWAQIQSEVWGRGSPSYC (SEQ ID NO: 174),low activity,decreased potency,
#6(I2)-Cys-Insulin: B29 modified insulin disulfide-conjugated to 6(I2)Cys SIEEEWAQIQSEVWGRGSPSYC (SEQ ID NO: 175),"very similar, low maximal activities",,
#6(F2)-Cys-Insulin: B29 modified insulin disulfide-conjugated to 6(F2)Cys SFEEEWAQIQSEVWGRGSPSYC (SEQ ID NO: 177),,,maximal activity relative to native insulin [1]: ~50%
"IGF1 (Y^B16L^B17) analog (ligand, Two chain analog; also called IGF analog) chain 1: GIVDECCFRSCDLRRLEMYCA chain 2: GPETLCGAELVDALYLVCGDRGFYFNKPT",,,IC50 (human insulin receptor): 0.51 nM
